Reference: ChEMBL document CHEMBL4673225, “Highly Selective PTK2 Proteolysis Targeting Chimeras to Probe Focal Adhesion Kinase Scaffolding Functions” (J Med Chem, 2019)
Values belong to the molecule of their own block, whether it stands above or below them. The source made the active and inactive calls. The calls are words filed in the database; no cut-off is given here.

Columns and labels:
[1] = target: T1, Protein cereblon/Focal adhesion kinase 1 (Homo sapiens, UniProt Q05397+Q96SW2); experiment: Protac activity at CRBN/PTK2 in human HuH-1 cells assessed as induction of PTK2 degradation incubated for 18 hrs by protein capillary electrophoresis method relative to control; assay type: cell-based
[2] = target: T1, Protein cereblon/Focal adhesion kinase 1; experiment: Protac activity at CRBN/PTK2 in human HLF1 cells assessed as induction of PTK2 degradation incubated for 18 hrs by protein capillary electrophoresis method relative to control; assay type: cell-based
[3] = target: T1, Protein cereblon/Focal adhesion kinase 1; experiment: Protac activity at CRBN/PTK2 in human A549 cells assessed as induction of PTK2 degradation at 1 to 100000 nM incubated for 18 hrs in presence of NEDD8 inhibitor […] by protein capillary electrophoresis method; assay type: cell-based; conditions: dose 1-100000 nM
[4] = target: T1, Protein cereblon/Focal adhesion kinase 1; experiment: Protac activity at CRBN/PTK2 in human Huh-7 cells assessed as induction of PTK2 degradation incubated for 18 hrs by protein capillary electrophoresis method; assay type: cell-based
Target sequence in this assay (Q05397 whole entry): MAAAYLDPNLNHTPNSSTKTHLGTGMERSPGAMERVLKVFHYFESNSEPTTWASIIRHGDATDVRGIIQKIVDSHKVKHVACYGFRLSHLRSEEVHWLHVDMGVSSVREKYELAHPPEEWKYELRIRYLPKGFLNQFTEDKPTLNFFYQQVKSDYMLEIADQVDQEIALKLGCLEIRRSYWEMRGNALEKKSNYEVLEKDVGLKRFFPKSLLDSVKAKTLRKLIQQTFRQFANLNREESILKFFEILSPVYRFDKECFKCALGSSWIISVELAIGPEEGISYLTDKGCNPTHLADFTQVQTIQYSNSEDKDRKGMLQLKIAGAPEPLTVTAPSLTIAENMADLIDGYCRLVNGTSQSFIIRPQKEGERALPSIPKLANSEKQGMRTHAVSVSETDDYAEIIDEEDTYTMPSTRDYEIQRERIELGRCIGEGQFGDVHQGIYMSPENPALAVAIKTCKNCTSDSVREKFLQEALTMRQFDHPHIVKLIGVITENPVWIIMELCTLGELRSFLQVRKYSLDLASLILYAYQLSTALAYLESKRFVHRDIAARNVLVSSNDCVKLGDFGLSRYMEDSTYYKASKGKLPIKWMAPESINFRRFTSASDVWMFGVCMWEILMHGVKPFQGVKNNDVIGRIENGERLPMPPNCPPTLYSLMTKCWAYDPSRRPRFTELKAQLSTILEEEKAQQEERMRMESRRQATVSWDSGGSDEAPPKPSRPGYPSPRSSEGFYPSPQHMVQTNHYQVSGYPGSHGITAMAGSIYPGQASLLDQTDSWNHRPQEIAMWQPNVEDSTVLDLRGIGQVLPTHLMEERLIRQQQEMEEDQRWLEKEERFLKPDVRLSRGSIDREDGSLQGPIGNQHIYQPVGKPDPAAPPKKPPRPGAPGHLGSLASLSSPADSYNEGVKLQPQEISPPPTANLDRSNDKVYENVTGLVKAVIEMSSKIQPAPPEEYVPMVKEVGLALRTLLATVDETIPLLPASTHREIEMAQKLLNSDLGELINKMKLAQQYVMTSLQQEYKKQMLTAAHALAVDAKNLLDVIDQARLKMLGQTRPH
Target sequence in this assay (Q96SW2 whole entry): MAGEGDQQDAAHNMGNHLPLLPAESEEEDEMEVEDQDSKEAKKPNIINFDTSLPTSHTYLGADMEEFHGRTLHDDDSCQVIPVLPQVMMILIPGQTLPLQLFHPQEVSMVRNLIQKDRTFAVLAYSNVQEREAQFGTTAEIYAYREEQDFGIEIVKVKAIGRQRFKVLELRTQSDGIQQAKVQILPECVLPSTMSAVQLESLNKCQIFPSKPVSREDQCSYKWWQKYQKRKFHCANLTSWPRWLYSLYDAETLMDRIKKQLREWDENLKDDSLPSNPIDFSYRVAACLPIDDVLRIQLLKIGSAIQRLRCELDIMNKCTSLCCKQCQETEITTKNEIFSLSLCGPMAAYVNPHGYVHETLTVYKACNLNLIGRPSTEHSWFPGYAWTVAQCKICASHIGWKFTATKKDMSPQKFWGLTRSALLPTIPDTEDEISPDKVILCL

[5] = Stability in DMSO as solid form; assay type: physicochemical
[6] = target: T1, Protein cereblon/Focal adhesion kinase 1; experiment: Protac activity at CRBN/PTK2 in human SK-HEP1 cells assessed as induction of PTK2 degradation incubated for 18 hrs by protein capillary electrophoresis method relative to control; assay type: cell-based
[7] = target: T1, Protein cereblon/Focal adhesion kinase 1; experiment: Protac activity at CRBN/PTK2 in human A549 cells assessed as time required for maximal induction of PTK2 degradation at 3 uM by protein capillary electrophoresis method; assay type: cell-based
[8] = target: T1, Protein cereblon/Focal adhesion kinase 1; experiment: Protac activity at CRBN/PTK2 in human HepG2 cells assessed as induction of PTK2 degradation incubated for 18 hrs by protein capillary electrophoresis method; assay type: cell-based
Target sequence in this assay (Q05397 whole entry): as the sequence (Q05397 whole entry) above
Target sequence in this assay (Q96SW2 whole entry): as the sequence (Q96SW2 whole entry) above

[9] = target: T1, Protein cereblon/Focal adhesion kinase 1; experiment: Protac activity at CRBN/PTK2 in human HuH-1 cells assessed as induction of PTK2 degradation incubated for 18 hrs by protein capillary electrophoresis method; assay type: cell-based
Target sequence in this assay (Q05397 whole entry): as the sequence (Q05397 whole entry) above
Target sequence in this assay (Q96SW2 whole entry): as the sequence (Q96SW2 whole entry) above

[10] = target: T1, Protein cereblon/Focal adhesion kinase 1; experiment: Protac activity at CRBN/PTK2 in human SNU-387 cells assessed as induction of PTK2 degradation incubated for 18 hrs by protein capillary electrophoresis method; assay type: cell-based
Target sequence in this assay (Q05397 whole entry): as the sequence (Q05397 whole entry) above
Target sequence in this assay (Q96SW2 whole entry): as the sequence (Q96SW2 whole entry) above

[11] = target: T1, Protein cereblon/Focal adhesion kinase 1; experiment: Protac activity at CRBN/PTK2 in human A549 cells assessed as induction of PTK2 degradation incubated for 18 hrs by protein capillary electrophoresis method relative to control; assay type: cell-based
[12] = target: T1, Protein cereblon/Focal adhesion kinase 1; experiment: Protac activity at CRBN/PTK2 in human SK-HEP1 cells assessed as induction of PTK2 degradation incubated for 18 hrs by protein capillary electrophoresis method; assay type: cell-based
Target sequence in this assay (Q05397 whole entry): as the sequence (Q05397 whole entry) above
Target sequence in this assay (Q96SW2 whole entry): as the sequence (Q96SW2 whole entry) above

[13] = target: T1, Protein cereblon/Focal adhesion kinase 1; experiment: Protac activity at CRBN/PTK2 in human SNU-423 cells assessed as induction of PTK2 degradation incubated for 18 hrs by protein capillary electrophoresis method relative to control; assay type: cell-based
[14] = target: T1, Protein cereblon/Focal adhesion kinase 1; experiment: Protac activity at CRBN/PTK2 in human Hep3B2.1-7 cells assessed as induction of PTK2 degradation incubated for 18 hrs in presence of Cyclosporine A by protein capillary electrophoresis method relative to control; assay type: cell-based; conditions: Hep3B
[15] = target: T1, Protein cereblon/Focal adhesion kinase 1; experiment: Protac activity at CRBN/PTK2 in human HLE cells assessed as induction of PTK2 degradation incubated for 18 hrs by protein capillary electrophoresis method; assay type: cell-based
Target sequence in this assay (Q05397 whole entry): as the sequence (Q05397 whole entry) above
Target sequence in this assay (Q96SW2 whole entry): as the sequence (Q96SW2 whole entry) above

[16] = target: T1, Protein cereblon/Focal adhesion kinase 1; experiment: Protac activity at CRBN/PTK2 in human Hep3B2.1-7 cells assessed as induction of PTK2 degradation incubated for 18 hrs in presence of Cyclosporine A by protein capillary electrophoresis method; assay type: cell-based; conditions: hep3b
[17] = target: T1, Protein cereblon/Focal adhesion kinase 1; experiment: Protac activity at CRBN/PTK2 in human A549 cells assessed as induction of PTK2 degradation incubated for 18 hrs by protein capillary electrophoresis method; assay type: cell-based
[18] = target: T1, Protein cereblon/Focal adhesion kinase 1; experiment: Protac activity at CRBN/PTK2 in human HuCCT-1 cells assessed as induction of PTK2 degradation incubated for 18 hrs by protein capillary electrophoresis method relative to control; assay type: cell-based
[19] = target: T2, von Hippel-Lindau disease tumor suppressor/Focal adhesion kinase 1 (Homo sapiens, UniProt Q05397+P40337); experiment: Protac activity at VHL/PTK2 in human HuCCT-1 cells assessed as induction of PTK2 degradation incubated for 18 hrs by protein capillary electrophoresis method; assay type: cell-based
[20] = target: T2, von Hippel-Lindau disease tumor suppressor/Focal adhesion kinase 1; experiment: Protac activity at VHL/PTK2 in human A549 cells assessed as induction of PTK2 degradation incubated for 18 hrs by protein capillary electrophoresis method; assay type: cell-based
[21] = target: T2, von Hippel-Lindau disease tumor suppressor/Focal adhesion kinase 1; experiment: Protac activity at VHL/PTK2 in human SNU-423 cells assessed as induction of PTK2 degradation incubated for 18 hrs by protein capillary electrophoresis method; assay type: cell-based
[22] = target: T2, von Hippel-Lindau disease tumor suppressor/Focal adhesion kinase 1; experiment: Protac activity at VHL/PTK2 in human HLF1 cells assessed as induction of PTK2 degradation incubated for 18 hrs by protein capillary electrophoresis method; assay type: cell-based
[23] = target: T2, von Hippel-Lindau disease tumor suppressor/Focal adhesion kinase 1; experiment: Protac activity at VHL/PTK2 in human HepG2 cells assessed as induction of PTK2 degradation incubated for 18 hrs by protein capillary electrophoresis method; assay type: cell-based
[24] = target: T2, von Hippel-Lindau disease tumor suppressor/Focal adhesion kinase 1; experiment: Protac activity at VHL/PTK2 in human SNU-387 cells assessed as induction of PTK2 degradation incubated for 18 hrs by protein capillary electrophoresis method; assay type: cell-based
[25] = target: T2, von Hippel-Lindau disease tumor suppressor/Focal adhesion kinase 1; experiment: Protac activity at VHL/PTK2 in human SK-HEP1 cells assessed as induction of PTK2 degradation incubated for 18 hrs by protein capillary electrophoresis method relative to control; assay type: cell-based
Target sequence in this assay (P40337 whole entry partner): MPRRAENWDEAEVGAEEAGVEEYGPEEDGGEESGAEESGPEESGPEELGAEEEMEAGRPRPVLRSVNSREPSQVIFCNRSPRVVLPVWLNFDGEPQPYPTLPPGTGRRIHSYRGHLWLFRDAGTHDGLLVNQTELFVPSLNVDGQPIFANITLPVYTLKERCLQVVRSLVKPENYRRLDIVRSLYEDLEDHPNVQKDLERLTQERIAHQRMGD
Target sequence in this assay (Q05397 2-1052 limits assumed): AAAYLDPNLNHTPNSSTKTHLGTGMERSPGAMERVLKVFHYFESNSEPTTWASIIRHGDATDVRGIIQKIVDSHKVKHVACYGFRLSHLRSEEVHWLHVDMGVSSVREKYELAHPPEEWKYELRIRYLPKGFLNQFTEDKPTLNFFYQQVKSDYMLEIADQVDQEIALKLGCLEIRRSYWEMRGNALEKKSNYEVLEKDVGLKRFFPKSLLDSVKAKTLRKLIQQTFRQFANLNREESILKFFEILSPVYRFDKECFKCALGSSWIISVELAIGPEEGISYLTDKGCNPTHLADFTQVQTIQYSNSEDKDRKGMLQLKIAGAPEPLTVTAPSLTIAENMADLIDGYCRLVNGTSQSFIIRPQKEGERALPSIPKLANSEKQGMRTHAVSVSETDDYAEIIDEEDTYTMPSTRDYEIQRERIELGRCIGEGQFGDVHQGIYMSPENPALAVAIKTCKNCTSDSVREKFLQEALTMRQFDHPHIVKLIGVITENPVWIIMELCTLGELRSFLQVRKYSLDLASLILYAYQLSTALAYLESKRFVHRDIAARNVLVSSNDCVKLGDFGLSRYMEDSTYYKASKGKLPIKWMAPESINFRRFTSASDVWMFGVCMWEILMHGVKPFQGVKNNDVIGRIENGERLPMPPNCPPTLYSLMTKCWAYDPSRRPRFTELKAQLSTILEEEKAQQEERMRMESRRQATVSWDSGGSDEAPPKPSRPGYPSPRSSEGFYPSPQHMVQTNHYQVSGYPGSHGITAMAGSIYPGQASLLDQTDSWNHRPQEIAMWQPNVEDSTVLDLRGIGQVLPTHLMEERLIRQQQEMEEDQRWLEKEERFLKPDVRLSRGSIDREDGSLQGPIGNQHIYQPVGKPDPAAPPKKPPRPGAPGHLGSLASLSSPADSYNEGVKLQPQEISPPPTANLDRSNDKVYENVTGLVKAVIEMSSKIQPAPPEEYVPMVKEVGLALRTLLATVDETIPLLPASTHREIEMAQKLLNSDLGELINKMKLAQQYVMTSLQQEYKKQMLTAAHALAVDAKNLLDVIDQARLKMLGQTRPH

[26] = target: T2, von Hippel-Lindau disease tumor suppressor/Focal adhesion kinase 1; experiment: Protac activity at VHL/PTK2 in human Hep3B2.1-7 cells assessed as induction of PTK2 degradation incubated for 18 hrs in presence of Cyclosporine by protein capillary electrophoresis method relative to control; assay type: cell-based; conditions: Hep3B
Target sequence in this assay (P40337 whole entry partner): as the sequence (P40337 whole entry partner) above
Target sequence in this assay (Q05397 2-1052 limits assumed): as the sequence (Q05397 2-1052 limits assumed) above

[27] = target: T2, von Hippel-Lindau disease tumor suppressor/Focal adhesion kinase 1; experiment: Protac activity at VHL/PTK2 in human Hep3B2.1-7 cells assessed as induction of PTK2 degradation incubated for 18 hrs in presence of Cyclosporine by protein capillary electrophoresis method; assay type: cell-based; conditions: hep3b
[28] = target: T2, von Hippel-Lindau disease tumor suppressor/Focal adhesion kinase 1; experiment: Protac activity at VHL/PTK2 in human A549 cells assessed as induction of PTK2 degradation incubated for 18 hrs by protein capillary electrophoresis method relative to control; assay type: cell-based
Target sequence in this assay (P40337 whole entry partner): as the sequence (P40337 whole entry partner) above
Target sequence in this assay (Q05397 2-1052 limits assumed): as the sequence (Q05397 2-1052 limits assumed) above

[29] = target: T2, von Hippel-Lindau disease tumor suppressor/Focal adhesion kinase 1; experiment: Protac activity at VHL/PTK2 in human SNU-423 cells assessed as induction of PTK2 degradation incubated for 18 hrs by protein capillary electrophoresis method relative to control; assay type: cell-based
Target sequence in this assay (P40337 whole entry partner): as the sequence (P40337 whole entry partner) above
Target sequence in this assay (Q05397 2-1052 limits assumed): as the sequence (Q05397 2-1052 limits assumed) above

[30] = target: T2, von Hippel-Lindau disease tumor suppressor/Focal adhesion kinase 1; experiment: Protac activity at VHL/PTK2 in human SK-HEP1 cells assessed as induction of PTK2 degradation incubated for 18 hrs by protein capillary electrophoresis method; assay type: cell-based
[31] = target: T2, von Hippel-Lindau disease tumor suppressor/Focal adhesion kinase 1; experiment: Protac activity at VHL/PTK2 in human HLF1 cells assessed as induction of PTK2 degradation incubated for 18 hrs by protein capillary electrophoresis method relative to control; assay type: cell-based
Target sequence in this assay (P40337 whole entry partner): as the sequence (P40337 whole entry partner) above
Target sequence in this assay (Q05397 2-1052 limits assumed): as the sequence (Q05397 2-1052 limits assumed) above

[32] = target: T2, von Hippel-Lindau disease tumor suppressor/Focal adhesion kinase 1; experiment: Protac activity at VHL/PTK2 in human HuCCT-1 cells assessed as induction of PTK2 degradation incubated for 18 hrs by protein capillary electrophoresis method relative to control; assay type: cell-based
Target sequence in this assay (P40337 whole entry partner): as the sequence (P40337 whole entry partner) above
Target sequence in this assay (Q05397 2-1052 limits assumed): as the sequence (Q05397 2-1052 limits assumed) above

[33] = target: T2, von Hippel-Lindau disease tumor suppressor/Focal adhesion kinase 1; experiment: Protac activity at VHL/PTK2 in human A549 cells assessed as time required for maximal induction of PTK2 degradation at 3 uM by protein capillary electrophoresis method; assay type: cell-based
[34] = target: T2, von Hippel-Lindau disease tumor suppressor/Focal adhesion kinase 1; experiment: Protac activity at VHL/PTK2 in human Huh-7 cells assessed as induction of PTK2 degradation incubated for 18 hrs by protein capillary electrophoresis method relative to control; assay type: cell-based
[35] = target: T2, von Hippel-Lindau disease tumor suppressor/Focal adhesion kinase 1; experiment: Protac activity at VHL/PTK2 in human Hep3B2.1-7 cells assessed as induction of PTK2 degradation incubated for 18 hrs by protein capillary electrophoresis method; assay type: cell-based; conditions: hep3b

Emax [1]: 50%
Emax [2]: 30%
Activity [3]: inactive
pDC50 [4]: 7.3
Stabilty [5]: > 3 months
Emax [6]: 89%
TIME [7]: 18 h
pDC50 [8]: 7.5
pDC50 [9]: 6.6
pDC50 [10]: 7.6
Emax [11]: 95%
pDC50 [12]: 7.5
Emax [13]: 93%
Emax [14]: 94%
pDC50 [15]: 6.8
pDC50 [16]: 9
pDC50 [17]: 7.6
Emax [18]: 90%
Structure (SMILES): COc1cc(C(=O)NCCOCCOCCOCCC(=O)Nc2cccc3c2C(=O)N(C2CCC(=O)NC2=O)C3=O)ccc1Nc1ncc(C(F)(F)F)c(Oc2cccc3c2C(=O)CC3)n1 (stereo not given)

pDC50 [19]: 6.9
pDC50 [20]: 6.7
pDC50 [21]: 7.1
pDC50 [22]: 7.4
pDC50 [23]: 6.2
pDC50 [24]: 7.5
Emax [25]: 87%
Emax [26]: 88%
pDC50 [27]: 7.4
Emax [28]: 80%
Emax [29]: 87%
pDC50 [30]: 6.9
Emax [31]: 66%
Emax [32]: 86%
TIME [33]: 72 h
Emax [34]: 79%
pDC50 [35]: 6.2
Structure (SMILES): COc1cc(C(=O)NCCOCCOCCOCC(=O)N[C@H](C(=O)N2C[C@H](O)C[C@H]2C(=O)NCc2ccc(-c3scnc3C)cc2)C(C)(C)C)ccc1Nc1ncc(C(F)(F)F)c(Oc2cccc3c2C(=O)CC3)n1
